Results on four compounds are retold here after patent publication US10351601B2, “CXCR4 antagonists and methods of use” (Mainline Biosciences, priority 2016, dated 2019).

The target of this experiment is T1, Human chemokine receptor CXCR4 (Homo sapiens, UniProt P61073).
T1 construct: expressed in transfected cells; host or cells: Chem-1 cells (membranes)
In words: Human CXCR4/125I-SDF-1α binding inhibition assay. As to the method:
“Ki” values are calculated using IC50 values determined in the CXCR4/^125I-SDF-1α binding assay described below by employing equation 7.22 of Enzymes, A Practical Introduction to Structure, Mechanism, and Data Analysis, Robert A. Copeland, Wiley-VCH, New York, 1996, page 207.
Human CXCR4/^125I-SDF-1α Binding Inhibition Assay:
Human chemokine receptor CXCR4 expressed in Chem-1 cells were used in modified HEPES buffer pH 7.4. A […] (Membrane protein may change from lot to lot, the concentration used were adjusted as necessary), aliquot was incubated with 0.03 nM [^125I]SDF-1α for 90 minutes at 25° C. Non-specific binding was estimated in the presence of 30 nM SDF-la. Membranes were filtered and washed, filters were then counted to determine [^125I]SDF-1α specifically bound. Compounds were screened starting at 10 μM with 11-point dilutions (Valenzuela-Fernandez A, et al. J Biol Chem. 277(18):15677, 2002).

The mark [1] stands for this setting: calculated from IC50 of the CXCR4/125I-SDF-1α binding assay, read-out: Binding Kb.

Like-named read-outs stand apart in the source and are kept apart here. Bridge positions count the residues as written; N and C are the ends. Square brackets hold non-standard residues; d marks the D form. Peptide text beside a SMILES is read from it. * marks the point of attachment. 2Nal = N[C@@H](Cc1ccc2ccccc2c1)C(=O)O; Lys(iPr) = CC(C)NCCCC[C@H](N)C(=O)O; hCys = N[C@@H](CCS)C(=O)O; Bz = O=C(c1ccccc1)*; Mpa = O=C(O)CCS Bounds are passed on as bounds.

T1 sequence (P61073 whole entry): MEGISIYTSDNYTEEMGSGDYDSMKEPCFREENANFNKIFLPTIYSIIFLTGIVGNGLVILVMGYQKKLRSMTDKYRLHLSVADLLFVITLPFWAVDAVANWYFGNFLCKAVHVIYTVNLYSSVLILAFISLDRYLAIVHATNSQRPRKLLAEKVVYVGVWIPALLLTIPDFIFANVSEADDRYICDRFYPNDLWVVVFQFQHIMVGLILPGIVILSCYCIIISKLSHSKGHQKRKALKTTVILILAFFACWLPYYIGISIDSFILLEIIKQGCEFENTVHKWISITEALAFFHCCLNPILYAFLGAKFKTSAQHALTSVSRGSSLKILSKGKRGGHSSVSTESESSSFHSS

In the case of `CC(C)NCCCC[C@@H]1NC(=O)[C@H](Cc2ccc(O)cc2)NC(=O)CCSSC[C@@H](C(=O)N[C@H](CCCNC(=N)N)C(=O)NCC(=O)N[C@H](Cc2ccccc2)C(=O)NCC(N)=O)NC(=O)CNC(=O)[C@H](Cc2ccc3ccccc3c2)NC(=O)[C@@H](CCCNC(=N)N)NC1=O` [Example 4, Cyclo[Mpa-Tyr-Lys(iPr)-(D-Arg)-2Nal-Gly-Cys]-(D-Arg)-Gly-(D-Phe)-Gly-NH2] ([Mpa]Y[Lys(iPr)][dR][2Nal]GC[dR]G[dF]G-NH2; disulfide 1-7), the Kb under setting [1] was 0.21 nM.
Turning to `CCNC(=O)CNC(=O)[C@H](CCCCNC(C)C)NC(=O)[C@@H]1CSSCC[C@H](NC(=O)c2ccccc2)C(=O)N[C@@H](Cc2ccc(O)cc2)C(=O)N[C@@H](CCCCNC(C)C)C(=O)N[C@H](CCCNC(=N)N)C(=O)N[C@@H](Cc2ccc3ccccc3c2)C(=O)NCC(=O)N1` [Example 14, Benzoyl-cyclo[hCys-Tyr-Lys(iPr)-(D-Arg)-2Nal-Gly-Cys]-Lys(iPr)-Gly-NH(Et)] (Bz-[hCys]Y[Lys(iPr)][dR][2Nal]GC[Lys(iPr)]G-NHEt; disulfide 1-7), the IC50 amounted to 1.3 nM and the Kb worked out at 0.39 nM.
Compound `CC(C)NCCCC[C@H](NC(=O)[C@@H]1CCSSC[C@H](NC(=O)c2ccccc2)C(=O)N[C@@H](Cc2ccc(O)cc2)C(=O)N[C@@H](CCCCNC(C)C)C(=O)N[C@H](CCCNC(=N)N)C(=O)N[C@@H](Cc2ccc3ccccc3c2)C(=O)NCC(=O)N1)C(=O)NCC(N)=O` [Example 12, Benzoyl-cyclo[Cys-Tyr-Lys(iPr)-(D-Arg)-2Nal-Gly-hCys]-Lys(iPr)-Gly-NH2] (Bz-CY[Lys(iPr)][dR][2Nal]G[hCys][Lys(iPr)]G-NH2; disulfide 1-7) showed a Kb of 0.21 nM.
As for `N=C(N)NCCC[C@@H]1NC(=O)CCSSC[C@@H](C(=O)N[C@@H](CCCNC(=N)N)C(=O)NCC(=O)N[C@H](Cc2ccccc2)C(=O)NCC(N)=O)NC(=O)CNC(=O)[C@H](Cc2ccc3ccccc3c2)NC(=O)[C@H](CCCNC(=N)N)NC(=O)[C@H](Cc2ccc(O)cc2)NC1=O` [Example 5, Cyclo[Mpa-Arg-Tyr-Arg-2Nal-Gly-Cys]-Arg-Gly-(D-Phe)-Gly-NH2] ([Mpa]RYR[2Nal]GCRG[dF]G-NH2; disulfide 1-7), the IC50 (CXCR4 expressed in Chem-1 cells, 0.03 nM [125I]SDF-1α, 90 minutes at 25° C., HEPES buffer pH 7.4, read-out: Binding IC50) was over 1000 nM. For the same compound, under setting [1], the Kb is over 1000 nM.
